Laboratory results reported in ChEMBL document CHEMBL1201862, “PubChem BioAssay data set” (2004).
Counter-ions that a name gives are not always drawn. Calls of active or inactive are those of the source.

Columns and labels:
[1] = target: T1, Protein skinhead-1 (Caenorhabditis elegans, UniProt P34707); type: functional
T1 sequence (P34707 whole entry): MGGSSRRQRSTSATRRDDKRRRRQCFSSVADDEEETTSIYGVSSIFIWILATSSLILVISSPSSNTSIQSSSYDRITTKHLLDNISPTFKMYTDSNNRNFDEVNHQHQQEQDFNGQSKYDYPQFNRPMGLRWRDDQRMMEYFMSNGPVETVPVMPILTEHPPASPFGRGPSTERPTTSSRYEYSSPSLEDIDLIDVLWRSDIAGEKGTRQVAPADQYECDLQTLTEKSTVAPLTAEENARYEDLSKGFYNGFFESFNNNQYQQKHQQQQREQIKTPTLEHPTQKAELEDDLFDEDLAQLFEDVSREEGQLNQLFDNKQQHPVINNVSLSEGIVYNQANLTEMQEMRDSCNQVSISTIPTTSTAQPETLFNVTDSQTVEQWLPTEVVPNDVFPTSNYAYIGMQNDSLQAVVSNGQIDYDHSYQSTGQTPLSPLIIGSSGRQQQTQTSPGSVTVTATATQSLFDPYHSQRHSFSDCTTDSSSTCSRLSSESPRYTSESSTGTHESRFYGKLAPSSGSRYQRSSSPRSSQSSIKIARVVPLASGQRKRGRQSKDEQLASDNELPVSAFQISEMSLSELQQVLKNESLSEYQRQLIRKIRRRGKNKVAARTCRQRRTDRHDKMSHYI

[2] = target: T2, Polyadenylate-binding protein 1 (Homo sapiens, UniProt P11940); assay: PABP1 MLLE–PAM2 interaction inhibitors, dose response, miRNA deadenylation inhibitor project, biochemical, fluorescence polarization, Cy5-PAM2 peptide, secondary (AID 602260); type: functional; conditions: read-out: IC50_Mean
T2 sequence (P11940 whole entry): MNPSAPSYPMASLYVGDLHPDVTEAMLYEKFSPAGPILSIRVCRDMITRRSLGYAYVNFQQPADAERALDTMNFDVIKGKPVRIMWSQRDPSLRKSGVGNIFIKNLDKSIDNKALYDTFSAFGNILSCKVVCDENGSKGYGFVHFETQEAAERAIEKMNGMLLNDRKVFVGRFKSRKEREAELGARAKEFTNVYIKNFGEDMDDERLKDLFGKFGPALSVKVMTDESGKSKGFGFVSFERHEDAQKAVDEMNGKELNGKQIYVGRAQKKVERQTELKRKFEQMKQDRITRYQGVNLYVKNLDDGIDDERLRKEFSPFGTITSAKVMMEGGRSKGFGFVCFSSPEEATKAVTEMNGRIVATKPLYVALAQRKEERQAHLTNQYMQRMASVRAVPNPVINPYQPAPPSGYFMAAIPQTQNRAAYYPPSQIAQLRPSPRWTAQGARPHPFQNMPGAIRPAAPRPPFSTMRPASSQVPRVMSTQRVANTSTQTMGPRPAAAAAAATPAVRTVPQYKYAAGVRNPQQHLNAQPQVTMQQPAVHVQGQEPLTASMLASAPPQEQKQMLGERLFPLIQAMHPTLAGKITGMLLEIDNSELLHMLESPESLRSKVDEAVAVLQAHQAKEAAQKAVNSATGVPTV

[3] = target: T2, Polyadenylate-binding protein 1; assay: PABP1 MLLE–PAM2 binding inhibitor potency, dose response, biochemical, fluorescence polarization, FITC-PAM2 peptide (AID 602259); type: functional; conditions: read-out: IC50_Mean
[4] = target: T3, Corticotropin-releasing factor receptor 2/Corticotropin-releasing factor-binding protein (Homo sapiens, UniProt P24387+Q13324); assay: activators of CRF receptor 2 with binding protein – uHTS hits, confirmation (AID 602473); type: functional; conditions: read-out: EC50_Mean
T3 sequence (Q13324 whole entry): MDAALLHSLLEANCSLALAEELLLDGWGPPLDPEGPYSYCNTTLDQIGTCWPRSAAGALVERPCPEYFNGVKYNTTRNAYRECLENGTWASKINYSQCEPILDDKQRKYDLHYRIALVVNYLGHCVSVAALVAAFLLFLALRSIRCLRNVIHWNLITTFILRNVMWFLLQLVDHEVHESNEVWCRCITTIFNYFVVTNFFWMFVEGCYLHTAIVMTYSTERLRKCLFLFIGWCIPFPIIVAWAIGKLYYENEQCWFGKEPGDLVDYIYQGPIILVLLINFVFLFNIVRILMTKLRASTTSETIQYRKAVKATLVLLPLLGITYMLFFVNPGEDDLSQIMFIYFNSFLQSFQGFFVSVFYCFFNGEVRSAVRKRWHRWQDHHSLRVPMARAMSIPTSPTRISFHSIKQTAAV
T3 sequence (P24387 whole entry): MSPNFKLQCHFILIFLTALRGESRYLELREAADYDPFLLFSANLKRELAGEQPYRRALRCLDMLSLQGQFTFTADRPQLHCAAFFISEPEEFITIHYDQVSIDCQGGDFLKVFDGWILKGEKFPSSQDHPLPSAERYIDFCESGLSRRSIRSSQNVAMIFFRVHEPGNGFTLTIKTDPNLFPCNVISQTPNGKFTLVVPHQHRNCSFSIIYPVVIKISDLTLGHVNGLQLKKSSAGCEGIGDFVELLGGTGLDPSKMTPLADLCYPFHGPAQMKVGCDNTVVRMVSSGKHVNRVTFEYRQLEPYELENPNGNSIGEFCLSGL

[5] = target: Genome polyprotein (dengue virus type 2, UniProt P29990); assay: Dengue-2 NS5 methyltransferase inhibitors, primary screen, biochemical, confirmation dose response (AID 588689); type: functional
Chain of Genome polyprotein (P29990 2492-3391 limits assumed): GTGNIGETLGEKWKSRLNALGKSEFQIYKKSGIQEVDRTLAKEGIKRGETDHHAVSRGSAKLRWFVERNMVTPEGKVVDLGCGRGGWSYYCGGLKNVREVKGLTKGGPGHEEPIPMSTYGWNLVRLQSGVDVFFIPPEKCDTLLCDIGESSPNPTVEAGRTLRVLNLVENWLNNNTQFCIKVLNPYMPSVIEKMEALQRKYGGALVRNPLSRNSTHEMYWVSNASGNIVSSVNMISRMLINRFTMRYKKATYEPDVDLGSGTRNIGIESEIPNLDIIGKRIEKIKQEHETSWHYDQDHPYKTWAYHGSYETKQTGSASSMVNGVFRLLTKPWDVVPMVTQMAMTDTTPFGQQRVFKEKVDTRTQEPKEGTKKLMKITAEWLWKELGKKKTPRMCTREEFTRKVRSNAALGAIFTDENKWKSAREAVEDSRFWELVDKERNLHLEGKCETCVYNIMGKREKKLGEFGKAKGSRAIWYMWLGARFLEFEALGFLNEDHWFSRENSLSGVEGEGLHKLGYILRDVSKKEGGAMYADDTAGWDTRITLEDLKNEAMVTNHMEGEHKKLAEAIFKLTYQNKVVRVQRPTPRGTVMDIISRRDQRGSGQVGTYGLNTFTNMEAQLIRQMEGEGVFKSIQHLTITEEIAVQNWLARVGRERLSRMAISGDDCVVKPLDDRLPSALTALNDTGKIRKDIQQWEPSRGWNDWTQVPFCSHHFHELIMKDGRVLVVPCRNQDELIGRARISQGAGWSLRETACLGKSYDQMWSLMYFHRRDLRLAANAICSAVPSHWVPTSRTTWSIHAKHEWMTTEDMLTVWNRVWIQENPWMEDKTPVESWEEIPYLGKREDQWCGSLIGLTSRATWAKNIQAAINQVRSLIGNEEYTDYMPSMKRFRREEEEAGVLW

[6] = target: Cytochrome P450 2C19 (Homo sapiens, UniProt P33261); assay: Cytochrome panel assay with activity outcomes. Panel member name: p450-cyp2c19 Compounds with AC50 equal or less than 10 uM are considered active; type: functional
Chain of Cytochrome P450 2C19 (P33261 whole entry): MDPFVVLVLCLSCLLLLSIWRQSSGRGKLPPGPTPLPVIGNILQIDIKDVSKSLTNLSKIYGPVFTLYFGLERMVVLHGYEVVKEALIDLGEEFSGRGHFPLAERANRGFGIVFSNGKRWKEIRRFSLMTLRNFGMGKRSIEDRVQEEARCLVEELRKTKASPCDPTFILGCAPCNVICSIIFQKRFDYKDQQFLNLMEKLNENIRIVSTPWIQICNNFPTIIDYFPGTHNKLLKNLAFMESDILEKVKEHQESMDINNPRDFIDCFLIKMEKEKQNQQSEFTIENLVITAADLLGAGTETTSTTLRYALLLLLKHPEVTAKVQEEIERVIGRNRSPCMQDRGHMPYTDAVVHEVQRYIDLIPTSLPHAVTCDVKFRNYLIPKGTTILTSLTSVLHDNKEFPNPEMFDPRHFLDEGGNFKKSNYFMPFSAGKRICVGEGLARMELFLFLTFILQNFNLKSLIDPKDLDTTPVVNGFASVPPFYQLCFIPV

[7] = target: FAD-linked sulfhydryl oxidase ALR (Homo sapiens, UniProt P55789); assay: inhibitors of human ALR sulfhydryl oxidase, dose response, biochemical, H2O2 detection, luminescence, cherry-pick (AID 493248)
Chain of FAD-linked sulfhydryl oxidase ALR (P55789 whole entry): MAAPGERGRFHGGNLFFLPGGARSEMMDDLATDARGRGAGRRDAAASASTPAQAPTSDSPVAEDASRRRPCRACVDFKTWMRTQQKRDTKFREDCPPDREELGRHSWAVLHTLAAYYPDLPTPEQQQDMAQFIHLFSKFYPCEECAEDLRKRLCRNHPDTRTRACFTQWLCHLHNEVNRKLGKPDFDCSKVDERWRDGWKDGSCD

[8] = target: Paired box protein Pax-8 (Homo sapiens, UniProt Q06710); assay: inhibitors of PAX8-driven TPO luciferase reporter, dose response, RMG-I cells, cherry-pick (AID 687027); type: functional, cell-based;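 also: luciferase reporter driven by Pax8 target thyroperoxidase promoter measured by SteadyGlo luminescence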
Chain of Paired box protein Pax-8 (Q06710 whole entry): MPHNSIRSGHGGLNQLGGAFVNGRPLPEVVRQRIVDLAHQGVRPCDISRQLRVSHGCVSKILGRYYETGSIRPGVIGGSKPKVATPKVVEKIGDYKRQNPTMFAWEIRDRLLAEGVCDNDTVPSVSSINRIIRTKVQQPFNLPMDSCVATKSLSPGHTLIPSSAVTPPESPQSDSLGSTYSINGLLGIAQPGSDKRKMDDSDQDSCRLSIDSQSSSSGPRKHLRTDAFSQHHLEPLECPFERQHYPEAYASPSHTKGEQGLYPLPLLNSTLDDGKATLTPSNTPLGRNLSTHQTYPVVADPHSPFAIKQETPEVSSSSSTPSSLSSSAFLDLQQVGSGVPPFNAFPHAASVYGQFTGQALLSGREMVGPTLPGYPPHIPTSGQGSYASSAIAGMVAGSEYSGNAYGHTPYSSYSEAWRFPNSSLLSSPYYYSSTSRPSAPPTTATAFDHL

[9] = control 3'UTR Renilla luciferase suppression, dose response, counter-screen for Shn3 inhibitor project, cell-based, Clone20-Shn3RL, cherry-picked (AID 624133); type: functional
[10] = Shn3 3'UTR reporter inhibitors, dose response, cell-based, Clone20 osteoblasts, firefly luciferase, cherry-picked (AID 624132); type: functional;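 also: firefly luciferase luminescence from reporter carrying the Shn3 3'UTR in osteoblasts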
[11] = HepG2 cell cytotoxicity, dose response, cytotoxicity control for Shn3 inhibitor project, CellTiter-Glo, cherry-picked (AID 624134); type: functional, cell-based

Row | IC50 [1] | IC50 [2] | IC50 [3] | SMILES | also measured
1 | > 100 µM (inactive) |  |  | O=C(Nc1ccc(Cl)cc1)Nc1ccc(Br)cn1 | 
2 |  | > 66 µM (inactive) | 31.2 µM (inactive) | O=C(CSC1=Nc2ccccc2C2=NC(CC(=O)NC3CCCCC3)C(=O)N12)NCc1ccco1 (stereo not drawn) | 
3 |  | > 66 µM (inactive) | > 66 µM (inactive) | COc1ccccc1CNC(=O)CSC1=NCCS1 | 
4 | > 100 µM (inactive) |  |  | O=C(Nc1cccc(Oc2ccccc2)c1)C1Cc2c(-c3ccc4c(c3)OCO4)ccnc2O1 (stereo not drawn) | 
5 |  |  |  | CC(=O)Oc1oc(-c2ccccc2)nc1/C=N/c1ccccc1 | EC50 [4]: 22.3 µM (active); IC50 [5]: 86.3 µM (active)
6 | > 100 µM (inactive) |  |  | CCc1ccc(NCc2nc(-c3ccccc3)no2)cc1 | 
7 |  |  |  | O=C(O)[C@H]1C[C@]2(C[C@H](C(=O)O)C2)C1 (stereo partly drawn) | AC50 [6]: inconclusive
8 |  | > 66 µM (inactive) | > 66 µM (inactive) | O=S(=O)(NC(=S)c1ccccc1)c1ccccc1 | 
9 |  |  |  | C/C(=N/Nc1ccc(C(=O)O)cc1)c1ccc(O)c(O)c1O | IC50 [5]: > 100 µM (active)
10 | > 100 µM (inactive) | > 66 µM (inactive) | > 66 µM (inactive) | Cc1cc2cc(CN=C(S)Nc3ccc(OC(F)F)cc3)ccc2n1C | 
11 |  |  |  | COc1ccc(C(C2C(=O)CC(C)(C)CC2=O)C2C(=O)CC(C)(C)CC2=O)cc1COCC(F)(F)F | IC50 [5]: 27.7 µM (active)
12 |  |  |  | CCNc1ccc(C(=O)O)cc1N | AC50 [7]: 1.41 µM (active)
13 | > 100 µM (inactive) |  |  | O=c1[nH]c2cc(Cl)c(Br)cc2o1 [BROMCHLORENONE] | 
14 |  | > 66 µM (inactive) | > 66 µM (inactive) | Cc1cc(SCNC(=O)c2ccccc2)nc(C(C)C)n1 | 
15 |  | > 66 µM (inactive) | > 66 µM (inactive) | CCOC(=O)c1c(NC(=O)c2ccccc2)sc2c1CCc1ccccc1-2 | 
16 |  |  |  | Oc1cccc2cc(Nc3ccccc3)cnc12 | AC50 [8]: 1.37 µM (active); AC50 [9]: 1.4 µM (active); AC50 [10]: 0.644 µM (active); AC50 [11]: 4 µM (active)
17 | > 100 µM (inactive) |  |  | CN(C)CCCO[C@@H]1[C@H]2OC(C)(C)O[C@H]2O[C@@H]1[C@H](O)CO [AMIPRILOSE HYDROCHLORIDE] | 
